Measurements as given in patent publication US5948775A, “2- or 3-(substitutedaminoalkoxyphenyl)quinazolin-4-ones” (American Home Products Corporation, priority 1998, dated 1999).
Read-outs that look alike come from different tables or passages of the source.

Key:
Ishikawa cells = experiment: Ishikawa Cell Alkaline Phosphatase Assay; format: cell-based; details: Homo sapiens, 48 h
Procedure: Ishikawa Cell Alkaline Phosphatase Assay
Cell Maintenance and Treatment:
Ishikawa cells were maintained in DMEM/F12 (50%:50%) containing phenol red+10% fetal bovine serum and the medium was supplemented with 2 mM Glutamax, 1% Pen/Strap and 1 mM sodium pyruvate. Five days prior to the beginning of each experiment (treatment of cells) the medium was changed to phenol red-free DMEM/F12+10% dextran coated charcoal stripped serum. On the day before treatment, cells were harvested using 0.5% trypsin/EDTA and plated at a density of 5×10^4 cells/well in 96-well tissue culture plates. […] Cells were treat for 48 h prior to assay. […] Sample population for at each dose was n=8.
Alkaline Phosphatase Assay:
At the end of 48 h the media is aspirated and cells are washed three times with phosphate buffered saline (PBS). 50 μL of lysis buffer (0.1 M Tris-HCl, pH 9.8, 0.2% Triton X-100) is added to each well. Plates are placed at -80° C. for a minimum of 15 minutes. Plates are thawed at 37° C. followed by the addition of 150 μL of 0.1 M Tris-HCl, pH 9.8, containing 4 mM para-nitrophenylphosphate (pNPP) to each well (final concentration, 3 mM pNPP).
Absorbance and slope calculations were made using the KineticCalc Application program (Bio-Tek Instruments, Inc., Winooski, Vt.). Results are expressed as the mean±S.D. of the rate of enzyme reaction (slope) averaged over the linear portion of the kinetic reaction curve (optical density readings every 5 minutes for 30 minutes absorbance reading).
A description of these methods is described by Holinka, C.

estrogen receptor = target: T1, estrogen receptor (Homo sapiens, UniProt P03372); experiment: In vitro estrogen receptor binding assay (competition with [^3 H]-17-β-estradiol)
T1 construct: made in house; host or cells: Chinese Hamster Ovary (CHO) cells, ribosome-free cytosol
T1 sequence (P03372 1-595): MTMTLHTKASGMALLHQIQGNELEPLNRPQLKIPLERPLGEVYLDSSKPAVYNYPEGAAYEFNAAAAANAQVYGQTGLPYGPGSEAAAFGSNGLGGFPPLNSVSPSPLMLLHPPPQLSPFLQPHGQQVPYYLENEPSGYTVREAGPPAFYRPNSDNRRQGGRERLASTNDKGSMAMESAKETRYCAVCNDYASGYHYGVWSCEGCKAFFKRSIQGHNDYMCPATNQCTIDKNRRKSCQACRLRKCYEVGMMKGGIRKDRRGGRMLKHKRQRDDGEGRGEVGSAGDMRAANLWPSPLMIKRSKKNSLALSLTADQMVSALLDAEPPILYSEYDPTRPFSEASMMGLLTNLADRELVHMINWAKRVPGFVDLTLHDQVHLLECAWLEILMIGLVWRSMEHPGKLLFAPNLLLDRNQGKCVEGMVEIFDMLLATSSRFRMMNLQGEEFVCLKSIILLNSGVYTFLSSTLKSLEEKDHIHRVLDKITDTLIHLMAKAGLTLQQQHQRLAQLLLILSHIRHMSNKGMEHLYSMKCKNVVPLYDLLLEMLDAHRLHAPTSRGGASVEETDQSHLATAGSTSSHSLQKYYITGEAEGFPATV
Procedure: Cells were harvested by scraping the surface and then the cell suspension was placed on ice. […] The cytosol was then frozen and stored at -80° C. Protein concentration of the cytosol was estimated using the BCA assay with reference standard protein.
The plate was incubated at room temperature for 2.5 h. […] Samples were counted to 2% or 10 minutes, whichever occurs first. […] Also, wells containing radioactivity but no cytosol were processed with charcoal to estimate unremovable DPM of [^3 H]
For a description of these methods, see Hulme, E. C., ed. 1992. Receptor-Ligand Interactions: A Practical Approach. IRL Press, New York.(see especially chapter 8).

human estrogen receptor = target: T2, human estrogen receptor (Homo sapiens, UniProt P03372); experiment: 2X VIT ERE Transfection Assay (luciferase, CHO cells stably transfected with human estrogen receptor); format: cell-based; details: 24 h
T2 construct: expressed in transfected cells
Procedure: 2X VIT ERE Transfection Assay
Cell Maintenance and Treatment
Chinese Hamster Ovary cells (CHO) which had been stably transfected with the human estrogen receptor were maintained in DMEM+10% fetal bovine serum (FBS). 48 h prior to treatment the growth medium was replaced with DMEM lacking phenol red+10% dextran coated charcoal stripped FBS (treatment medium). Cells were plated at a density of 5000 cells/well in 96-well plates containing 200 μL of medium/well.
Calcium Phosphate Transfection
Reporter DNA (Fromega plasmid pGL2 containing two tandem copies of the vitellogenin ERE in front of the minimal thymidine kinase promoter driving the luciferase gene) was combined with the β-galactosidase expression plasmid pCH110 (Pharmacia) and carrier DNA (pTZ18U) in the following ratio:
20 μg of DNA/1 mL of transfection solution
The DNA (20 μg) was dissolved in 500 μL of 250 mM sterile CaCl2 and added dropwise to 500 μL of 2X HeBS (0.28 M NaCl, 50 mM HEPES, 1.5 mM Na2 HPO4, pH 7.05) and incubated at room temperature for 20 minutes. 20 μL of this mixture was added to each well of cells and remained on the cells for 16 h. […] Each treatment condition was performed on 8 wells (n=8) which were incubated for 24 h prior to the luciferase assay.
After 24 h exposure to compounds, the media was removed and each well washed with 2X with 125 μL of PBS lacking Mg^++ and Ca^++. […] The luciferan substrate (Promega) was added in 100 μL aliquots to each well automatically by the luminometer and the light produced (relative light units) was read 10 seconds after addition.
To the remaining 5 μL of lysate 45 μL of PBS was added. […] The plates were analyzed on a Molecular Devices specrophotometric plate reader at 410 nm. […]
The luciferase data was generated as relative light units (RLUs) accumulated during a 10 second measurement and automatically transferred to a JMP (SAS Inc.) file where background RLUs were subtracted. […] The mean and standard deviations were determined from a n=8 for each treatment. […]

uterus = details: background statement; cited from earlier work
bone = details: background statement; cited from earlier work
[1] = Test articles at 10^-6 M, alone, percent of response related to 1 nM 17β-estradiol (control), read-out: % Activation
[2] = Competition With 17-β-estradiol (0.8 nM), CHO cell cytosol

| SMILES | activation at 1 µM (Ishikawa cells; [1]) [%] | IC50 (estrogen receptor; read-out: IC50) [µM] | activation at 1 µM (human estrogen receptor) [%] | effect on the uterus (uterus) | effect on bone (bone) | IC50 (estrogen receptor; [2]) | activation at 1 µM (Ishikawa cells) [%] |
| --- | --- | --- | --- | --- | --- | --- | --- |
| O=c1c2ccc(O)cc2nc(-c2ccc(O)cc2)n1-c1ccc(OCCN2CCCCC2)cc1 [Example 9, 7-Hydroxy-2-(4-hydroxy-phenyl)-3-{4-[2-(piperidin-1-yl)-ethoxy]-phenyl}-3H-quinazolin-4-one] | 0 | 6.5 | 72 | – | – | – | – |
| C[C@]12CC[C@@H]3c4ccc(O)cc4CC[C@H]3[C@@H]1CC[C@@H]2O [17-β-estradiol, reference compound] | 100 | – | – | – | – | – | – |
| O=C(c1ccc(OCCN2CCCCC2)cc1)c1c(-c2ccc(O)cc2)sc2cc(O)ccc12 [Raloxifene] | 5 | – | – | stimulate uterine growth in animal models to a lesser degree than Tamoxifen | sparing bone | – | – |
| O=c1c2cccc(O)c2nc(-c2ccc(OCCN3CCCCC3)cc2)n1-c1ccc(O)cc1 [Example 16, 8-Hydroxy-3-(4-hydroxy-phenyl)-2-{4-[2-(piperidin-1-yl)-ethoxy]-phenyl}-3H-quinazolin-4-one] | 0 | – | 14 | – | – | Binding not detected at upper limit of assay | – |
| CC/C(=C(\c1ccccc1)c1ccc(OCCN(C)C)cc1)c1ccccc1 [Tamoxifen] | – | – | – | partial agonist effects in the uterus | increase bone mass | – | 0 |
| O=c1c2cccc(O)c2nc(-c2ccc(O)cc2)n1-c1ccc(OCCN2CCCCC2)cc1 [Example 21, 8-Hydroxy-2-(4-hydroxy-phenyl)-3-[4-(2-piperidin-1-yl-ethoxy)-phenyl]-3H-quinazolin-4-one] | 0 | – | 6 | – | – | Binding not detected at upper limit of assay | – |
